In EP2243494A1, “Pharmaceutical composition, comprising a steroid-dehydrogenase-reductase inhibitor, and a mineralocorticoid receptor antagonist” (OntoChem GmbH, priority 2009, dated 2010):

Experiments:
monocytes = assay: Monocyte/macrophage differentiation and functional changes (RT-PCR or microarray analysis); type: cell-based, Rodent and human; details: for cell proliferation and maturation of monocytes: 10^-7 M cortisol, 10^-9 M aldosteron
Experimental: Rodent and human monocytes were studied during their differentiation process towards macrophages in the presence or absence of different, physiologically relevant levels of cortisol or corticosterone, as well as aldosterone, respectively.
Glucocorticoid receptor (GR) and mineralocorticoid receptor occupancy was modulated with either eplerenone or ZK91587 or canrenoate (as MR-antagonists) or RU486 (GR-antagonist). […] (dehydrocorticosterone in rodent cells) was added as a substrate for 11-beta-HSD1. Metyrapone was used to block 11-beta-HSD1 reductase activity. Inhibitors were added with 10^-7 M cortisol, 10^-9 M aldosteron concentration, HSD inhibitors were added in 10^-6 M concentration.
Monocytes were first stimulated with either lipopolysaccharide (LPS) or Tumor-necrosis-factor-alpha (TNF-apha), interferone-gamma (IFN-gamma), interleukin-13 (IL-13) or interleukin-4 (IL-4) before differentiation into macrophages in the presence of above different agonist/antagonist combinations. In order to evaluate the linkage between inflammation and metabolic disease, mature macrophages were also stimulated with fatty acids via the Toll-like-receptor 4.

[1] = tested on: Vascular smooth muscle cells; assay: GR or MR blockade and 11-beta-HSD-2 inhibition in vascular cells; type: cell-based; details: physiologically relevant levels of aldosterone
Experimental: Vascular smooth muscle cells were incubated with varying combinations of a MR or GR-antagonist and physiologically relevant levels of cortisol or aldosterone; importantly, adosterone and cortisol were also used in combination to mimic specific interactions between the ligand-receptor and co-factor recruitment as observed in vitro and in vivo.

[2] = biological target: T1, mineralocorticoid receptor (Homo sapiens, UniProt P08235); details: relative to aldosterone; cited from earlier work
T1 sequence (P08235 1-984): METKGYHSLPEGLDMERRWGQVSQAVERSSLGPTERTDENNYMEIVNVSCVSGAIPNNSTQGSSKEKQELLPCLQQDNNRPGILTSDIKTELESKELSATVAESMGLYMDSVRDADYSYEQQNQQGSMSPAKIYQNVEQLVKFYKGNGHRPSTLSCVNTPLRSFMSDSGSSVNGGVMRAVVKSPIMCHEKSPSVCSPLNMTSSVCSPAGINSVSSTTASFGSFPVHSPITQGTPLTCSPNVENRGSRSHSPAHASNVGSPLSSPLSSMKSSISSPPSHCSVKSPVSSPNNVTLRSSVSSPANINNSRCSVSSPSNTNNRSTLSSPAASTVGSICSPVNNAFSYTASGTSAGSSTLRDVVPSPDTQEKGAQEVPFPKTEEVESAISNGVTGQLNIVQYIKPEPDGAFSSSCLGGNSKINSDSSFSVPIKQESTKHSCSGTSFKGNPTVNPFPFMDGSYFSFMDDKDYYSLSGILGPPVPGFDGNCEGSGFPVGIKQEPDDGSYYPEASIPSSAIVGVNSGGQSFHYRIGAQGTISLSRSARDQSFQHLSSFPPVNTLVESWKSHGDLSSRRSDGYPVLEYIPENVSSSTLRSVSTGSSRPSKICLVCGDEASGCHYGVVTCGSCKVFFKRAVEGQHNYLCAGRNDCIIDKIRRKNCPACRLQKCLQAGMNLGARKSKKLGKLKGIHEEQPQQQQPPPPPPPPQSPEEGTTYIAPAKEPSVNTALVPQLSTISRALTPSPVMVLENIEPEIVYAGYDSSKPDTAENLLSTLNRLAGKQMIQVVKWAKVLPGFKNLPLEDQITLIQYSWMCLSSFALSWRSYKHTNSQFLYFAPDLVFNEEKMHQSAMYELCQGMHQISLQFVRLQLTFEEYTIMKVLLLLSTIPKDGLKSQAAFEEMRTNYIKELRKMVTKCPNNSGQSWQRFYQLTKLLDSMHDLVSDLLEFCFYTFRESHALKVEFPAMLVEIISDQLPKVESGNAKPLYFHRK

[3] = heart failure patients, normal or low aldosterone, added to ACE inhibitor, loop diuretic and digoxin; cited from earlier work

Row | SMILES | cell proliferation and maturation of monocytes (monocytes) | vascular endothelial growth factor (VEGF) and ICAM-1 induction [1] | decrease of post-myocardial infarction morbidity and mortality rate [3] | further results
1 | C[C@]12CCC(=O)C=C1CC[C@@H]1[C@@H]2[C@@H](O)C[C@]2(C=O)[C@@H](C(=O)CO)CC[C@@H]12 [aldosterone] | induced cell proliferation and maturation of monocytes | induced vascular endothelial growth factor (VEGF) as well as ICAM-1 |  | macrophage phenotype (NfkappaB, RANK-ligand, interleukin-6, ROS, plasminogen activator inhibitor-1) (monocytes; induction with aldosterone): more proinflammatory macrophage phenotype
2 | C[C@]12CCC(=O)C=C1CC[C@@H]1[C@@H]2[C@@H](O)C[C@@]2(C)[C@H]1CC[C@]2(O)C(=O)CO [cortisol] | induced cell proliferation and maturation of monocytes |  |  | affinity to the mineralocorticoid receptor, higher than aldosterone [2]: 10-30 fold
3 | C[C@]12CCC(=O)C=C1CC[C@@H]1[C@@H]2C(=O)C[C@@]2(C)[C@H]1CC[C@]2(O)C(=O)CO [cortisone] | induced cell proliferation and maturation of monocytes |  |  | 
4 | COC(=O)[C@@H]1CC2=CC(=O)CC[C@]2(C)[C@@]23O[C@@H]2C[C@@]2(C)[C@@H](CC[C@@]24CCC(=O)O4)[C@H]13 [eplerenone] |  | reversed this effect | ~15% | 
5 | CC(=O)S[C@@H]1CC2=CC(=O)CC[C@]2(C)[C@H]2CC[C@@]3(C)[C@@H](CC[C@@]34CCC(=O)O4)[C@H]12 [spironolactone] |  |  | about 30% | 
6 | CC(C)(C(=O)c1cccnc1)c1cccnc1 [metyrapone] |  |  |  | effect on macrophage differentiation and function (monocytes; HSD inhibitors added in 10^-6 M concentration): the effects of aldosterone at the high affinitity MR were enhanced or were able to override glucocorticoid mediated effects
